Assay results as given in patent EP2924045A1, “New agents for the treatment of cancer” (Medizinische Universität Wien, priority 2014, dated 2015).

Assays:
[1] = Stability test in minimal essential medium; type: physicochemical
cell viability = experiment: MTT-based cell viability under normoxic and hypoxic conditions; conditions: 72 h treatment
Protocol: (§1) Cells were plated (2x10^3 cells/well) in 96-well plates and allowed to recover for 24 h. Subsequently, the dissolved drugs were added. After 72 h exposure, the proportion of viable cells was determined by MTT assay following the manufacturer's recommendations (EZ4U, Biomedica, Vienna, Austria). Cytotoxicity was expressed as IC50 values calculated from full dose-response curves using Graph Pad Prism software.
(§2) Cells were plated in 96- or 6-well plates, respectively, in an HERA cell 150i (Thermo Scientific) with at 1% O2/5% CO2 level for indicated time points (72 h and 4 h for MTT assays and protein isolation, respectively) before analysis/harvesting.
As a first step, the anticancer activity of the novel Co(III) complex was tested in comparison to the metal-free ligand under normoxic and hypoxic conditions as shown in Figures 5 and 6A after 72 h treatment cell viability was measured using a MTT-based system. Values given are means ± standard deviation (SD) of one representative experiment performed in triplicates (Statistical analysis: t-test; ***p< 0.001 ^a: difference between L2 and 1a; ^b: difference between 1a normoxia and 1a hypoxia).

EGFR = experiment: Western blot of EGFR inhibition in A431 and Calu3 cells under normoxia and hypoxia; type: cell-based; conditions: 4 h treatment, EGF 50 ng/ml for 15 min
Protocol: as §2
Proteins were isolated, resolved by SDS/PAGE, and transferred onto a polyvinylidenedifluoride membrane for Western blotting by routine methods. The following antibodies were used: EGFR, pEGFR (Tyr1068), ERK1/2 (p44/42 MAPK), and pERK (Thr202/Tyr204) (all polyclonal rabbit - Cell Signaling Technology, Beverly, MA, USA). β-actin was monoclonal mouse AC-15 (Sigma). All primary antibodies were used in 1:1000 dilutions. Additionally, horseradish peroxidase-labelled secondary antibodies from Santa Cruz Biotechnology were used at working dilutions of 1:10000.

A431 xenografts = experiment: A431 xenograft tumour growth in SCID mice; type: in vivo; conditions: 5 mg/kg i.v. or 25 mg/kg i.p.; efficacy comparable to erlotinib, especially upon intraperitoneal application
Description: (§3) Six- to 8-week-old female CB-17 scid/scid (SCID) mice were purchased from Harlan Laboratories (San Pietro al Natisone, Italy). The animals were kept in a pathogen-free environment and every procedure was done in a laminar airflow cabinet. The experiments were done according to the regulations of the Ethics Committee for the Care and Use of Laboratory Animals at the Medical University Vienna, The U.S. Public Health Service Policy on Human Care and Use of Laboratory Animals as well as the United Kingdom Coordinating Committee on Cancer Prevention Research's Guidelines for the Welfare of Animals in Experimental Neoplasia.
(§4) This is of interest, as Calu3 xenografts are characterized by a rather specific tumor histology, where small tumour islands are surrounded by murine fibroblasts. Consequently, in these xenografts a larger tumor volume might be necessary for the development of hypoxic conditions and, thus, activation of 1b.

Calu3 xenografts = experiment: Calu3 xenograft tumour growth in SCID mice; type: in vivo; conditions: when a tumour size of more than 200 mm^2 was reached
Description: as §3, §4

A431 = experiment: MTT cytotoxicity assay, A431 cells; type: cell-based; conditions: Homo sapiens, A-431; MTT assay after 72 h treatment; wild-type EGFR-overexpressing erlotinib-sensitive A431; read-out: Inhibition of Cell Growth (IC50 µM) A431
Protocol: Cell cultures were periodically checked for Mycoplasma contamination.
Subsequently, the dissolved drugs were added. […] Cytotoxicity was expressed as IC50 values calculated from full dose-response curves using Graph Pad Prism software.

H1975 = experiment: MTT cytotoxicity assay, H1975 cells; type: cell-based; conditions: Homo sapiens, NCI-H1975; MTT assay after 72 h treatment; H1975 with resistance-conferring EGFR mutation T790M; read-out: Inhibition of Cell Growth (IC50 µM) H1975
Protocol: The human NSCLC cell lines A431 (wt EGFR-overexpressing and erlotinib-sensitive) and H1975 (EGFR mutation at L858R as well as T790M and erlotinib-resistant) were purchased from American Type Culture Collection (ATCC), Rockville, MD, USA and cultivated unless otherwise indicated in humidified incubators (37°C, 21% O2, 5% CO2) in RPMI 1640 medium containing 10% fetal calf serum (PAA, Linz Austria). Cell cultures were periodically checked for Mycoplasma contamination.
as §1
(§5) As a first step MTT assays (after 72 h treatment) performed in wild-type EGFR-overexpressing erlotinib-sensitive A431 and Calu3 cells as well as in H1975 cells, which harbour a resistance-conferring EGFR mutation T790M (Table 1). […] Only in Calu3 cells activity in the low µM range was observed. In contrast, L2 containing the smallest chelating moiety had IC50 values in the low µM range in both erlotinib-responsive models. […] Table 1. Anticancer activity (IC50 values)

Calu3 = experiment: MTT cytotoxicity assay, Calu3 cells; type: cell-based; conditions: Homo sapiens, Calu-3; MTT assay after 72 h treatment; wild-type EGFR-overexpressing erlotinib-sensitive Calu3; read-out: Inhibition of Cell Growth (IC50 µM) Calu3
Protocol: as §1, §5

EGFR signaling pathway = experiment: Western blot of EGFR signaling (pERK, pEGFR) in EGF-stimulated cells; type: cell-based; conditions: EGF-stimulated cells (HCC827 per Fig. 3), 4 h drug incubation, Western blotting

## CC(=O)C=C(C)[O-].CC(=O)C=C(C)[O-].F[P-](F)(F)(F)(F)F.NCCNc1ccc2ncnc(Nc3cccc(Br)c3)c2c1.[Co+3] [Compound 1a, Bis(2,4-pentanedionato) N^6-(2-aminoethyl)-N^4-(3-bromophenyl) quinazoline-4,6-diamine cobalt(III) hexafluorophosphate]
[1]
  stable in minimal essential medium: at least 24 h
Cell viability; hypoxia (1% O2)
  anticancer activity, hypoxia: significantly increased
Cell viability; normoxic conditions, up to the highest tested concentration of 25 µM
  anticancer activity (cell viability), normoxic conditions: widely inactive
EGFR; hypoxia
  EGFR inhibitory potential, hypoxia: potent activity similar to the metal-free ligand L2
EGFR; normoxic conditions
  EGFR inhibitory potential, normoxic conditions: distinctly reduced

## CC(=O)C=C(C)[O-].CC(=O)C=C(C)[O-].NCCNc1ccc2ncnc(Nc3cccc(Br)c3)c2c1.[Cl-].[Co+3] [Compound 1b, Bis(2,4-pentanedionato) N^6-(2-aminoethyl)-N^4-(3-bromophenyl) quinazoline-4,6-diamine cobalt(III) chloride]
[1]
  stable in minimal essential medium: at least 24 h
A431 xenografts
  tumor growth of A431 xenografts: potently inhibited tumor growth
Calu3 xenografts
  tumor growth of Calu3 xenografts: induced distinct tumor regression

## Brc1cccc(Nc2ncnc3ccc(N=Cc4ccccn4)cc23)c1 [Compound L1, N^4-(3-bromophenyl)-N^6-(pyridin-2-ylmethylene) quinazoline-4,6-diamine]
A431
  IC50: > 25 µM
H1975
  IC50: 20.4 ± 3.8 µM
Calu3
  IC50: 3.5 ± 0.08 µM

## Cl.Cl.NCCNc1ccc2ncnc(Nc3cccc(Br)c3)c2c1 [Compound L2, N^6-(2-aminoethyl)-N^4-(3-bromophenyl)quinazoline-4,6-diamine dihydrochloride]
A431
  IC50: 9.15 ± 0.47 µM
H1975
  IC50: 15.5 ± 2.18 µM
Calu3
  IC50: 2 ± 0.52 µM
EGFR signaling pathway
  inhibitory effects on ERK and EGFR phosphorylation levels: most potent EGFR inhibitor with activity similar to erlotinib

## C#Cc1cccc(Nc2ncnc3cc(OCCOC)c(OCCOC)cc23)c1 [erlotinib, reference compound]
H1975
  IC50: > 25 µM
Calu3
  IC50: 0.74 ± 0.02 µM
